Key:
2008 (ovarian) = test: Sulforhodamine B (SRB) cell growth inhibition assay; settings: 72 hours, based on equivalent platinum loading, standard drugs on total molecular weight
Description: (§1) Cell growth inhibition was determined using the Sulforhodamine B (SRB) assay (Voigt W., “Sulforhodamine B assay and chemosensitivity” Methods Mol. Med., 2005, 110, 39-48) against various cancer cell lines after 72 hours.
(§2) All solutions were prepared in saline and were stored at −20° C. All values were based on equivalent platinum loading except standard drugs which were calculated on total molecular weight. The results are shown in Table 1 in the micromolar range.

FADU (head and neck) = test: as above; settings: 72 hours, based on equivalent platinum loading, standard drugs on total molecular weight
Description: as §1, §2

LoVo (colon) = test: as above; settings: 72 hours, based on equivalent platinum loading, standard drugs on total molecular weight
Description: as §1, §2

OE21 (head and neck) = test: as above; settings: 72 hours, based on equivalent platinum loading, standard drugs on total molecular weight
Description: as §1, §2

SW620 (colon) = test: as above; settings: 72 hours, based on equivalent platinum loading, standard drugs on total molecular weight
Description: as §1, §2

[1] = Maximum tolerated dosage in mice; settings: intravenous, once weekly for three weeks (day 1, 8 and 15), female Balb/c mice
From the text: Mice were weighed daily and watched for signs of toxicity. Animals were monitored for up to 10 days following the final drug dose. Any mice exceeding ethical endpoints (>20% body weight loss, poor general health) were immediately sacrificed and observations were noted.

SW620 cells = test: Xenograft model efficacy study; settings: IV days 1, 8, 15, Oxaliplatin 5, Compound 1 8.5, Compound 5 9 mg/kg Pt equivalents
Description: Thirteen days later, 50 mice with similar sized tumors (˜110 mm^3) were randomized into 4 groups (n=12). All compounds were dissolved in 5% glucose at the concentration required to achieve administration of 0.1 mL/10 g body eight.

[2] = Toxicity study: blood cell counts in tumor-bearing mice; settings: Oxaliplatin 5, Compound 1 8.5, Compound 5 9 mg/kg Pt equivalents IV days 1, 8, 15
Description: The mice were randomised into 4 groups of n=5 mice, (mean tumor volume ˜90 mm^3) On day one, animals were eye bled in the morning for baseline cell counts and then drug dosing commenced later that day. Drug dosing was performed on days 1, 8 and 15 at the previously determined maximum tolerated doses. All compounds were dissolved in 5% glucose at the concentration required to allow administration of 0.1 mL/10 g body weight. […] Subsequent eye bleeds were performed on days 7, 14 and 26 (Tables 4 A-D, in each case data represented as mean ratio of counts for each time point relative to that at the baseline).

[3] = cited from earlier work

Compound | GI50 (2008 (ovarian)) [µM] | GI50 (FADU (head and neck)) [µM] | GI50 (LoVo (colon)) [µM] | GI50 (OE21 (head and neck)) [µM] | GI50 (SW620 (colon)) [µM] | further results
BHALys[Lys]32[α-Succ-Gly-Gly-Gly-amino malonic acid-N,O—Pt-1R,2R-(DACH)]32[ε-PEG1100]32 [Compound 4] | 6.4 | 9.5 | 13 | 7.4 | 6.7 | –
BHALys[Lys]32[α-Succ-Gly-Leu-Phe-Gly-amino malonic acid-N,O—Pt-1R,2R-(DACH)]32[ε-PEG1100]32 [Compound 6] | 3.9 | 12 | 8.1 | 14.5 | 4.2 | –
BHALys[Lys]32[α-thiodiglycolic acid-4-oxy-1,1-cyclohexane dicarboxylic acid —Pt-1R,2R-(DACH)]32[ε-PEG2200]32 [Compound 12] | 6 | 8.5 | 5 | – | 2.5 | Tolerated Dose [1]: >60 mg/Kg Pt equivalents
BHALys[Lys]32[α-diglycolic acid-5R-oxy-(1R,2R)-diaminocyclohexane-oxalato-Platinum (II)]32[ε-PEG2200]32 [Compound 13] | – | – | – | – | – | Tolerated Dose [1]: >35 mg/Kg Pt equivalents
BHALys[Lys]32[α-Succ-Gly-Leu-Phe-Gly-amino malonic acid-Pt-1R,2R-(DACH)]32[ε-PEG2200]32 [Compound 5] | 2.5 | 3 | 3 | – | 1.5 | Mean Tumor Volume (SW620 cells; Day 1): 100.96 mm^3; Mean Tumor Volume (SW620 cells; Day 7): 196.01 mm^3; Mean Tumor Volume (SW620 cells; Day 14): 303.00 mm^3; Mean Tumor Volume (SW620 cells; Day 21): 363.01 mm^3
oxaliplatin [reference compound] | 0.2 | 0.9 | 0.5 | 1 | 0.2 | Mean lymphocytes counts (baseline corrected) (SEM) ([2]; Day 1 (baseline)): 1.000 (0.125); Mean lymphocytes counts (baseline corrected) (SEM) ([2]; Day 7): 0.240 (0.130); Mean lymphocytes counts (baseline corrected) (SEM) ([2]; Day 14): 0.302 (0.066); Mean lymphocytes counts (baseline corrected) (SEM) ([2]; Day 26): 0.380 (0.154); Mean Tumor Volume (SW620 cells; Day 1): 100.56 mm^3; Mean Tumor Volume (SW620 cells; Day 7): 203.06 mm^3; Mean Tumor Volume (SW620 cells; Day 14): 340.50 mm^3; Mean Tumor Volume (SW620 cells; Day 21): 501.57 mm^3
BHALys[Lys]32[α-Succ-Gly-Gly-Gly-amino malonic acid-O,O′—Pt-diammine]32[ε-PEG2200]32 [Compound 2] | 41 | 200 | 170 | > 30 | > 300 | –
N.N.O=C([O-])C1(C(=O)[O-])CCC1.[Pt+2] [Carboplatin, carboplatin, reference compound] | 4.9 | 20 | 23 | 3.6 | 33.5 | patients developing peripheral neurotoxicity ([3]; patients receiving the drug): 4-6%
BHALys[Lys]32[α-Succ-Pro-Val-Gly-Leu-Ile-Gly-amino malonic acid N,O—Pt-diamine]32[ε-PEG1100]32 [Compound 8] | 18 | 71 | 72 | 26.5 | 63 | –
BHALys[Lys]32[α-Succ-Gly-Gly-Gly-amino malonic acid-Pt-1R,2R-(DACH)]32[ε-PEG2200]32 [Compound 1] | 4.5 | 9 | 7.5 | – | 3.5 | Mean Tumor Volume (SW620 cells; Day 1): 100.47 mm^3; Mean Tumor Volume (SW620 cells; Day 7): 184.55 mm^3; Mean Tumor Volume (SW620 cells; Day 14): 283.02 mm^3; Mean Tumor Volume (SW620 cells; Day 21): 316.90 mm^3
BHALys[Lys]32[α-Succ-Gly-Leu-Phe-Gly-amino malonic acid-N,O—Pt-diammine]32[ε-PEG1100]32 [Compound 7] | 36 | 150 | 220 | > 30 | 170 | –
N.N.[Cl][Pt][Cl] [Cisplatin, cisplatin, reference compound] | 0.5 | 2 | 2.8 | 0.4 | 3.6 | patients with tinnitus and hearing loss ([3]; patients treated with the drug): up to 31%
BHALys[Lys]32[α-Succ-Gly-Gly-Gly-amino malonic acid-O,N—Pt-diammine]32[ε-PEG2200]32 [Compound 3] | 69 | > 300 | > 300 | – | > 300 | –
BHALys[Lys]32[α-diglycolic acid-5S-oxy-(1R,2R)-diaminocyclohexane-oxalato-Platinum (II)]32[ε-PEG2200]32 [Compound 14] | – | – | – | – | – | Tolerated Dose [1]: >35 mg/Kg Pt equivalents
